Results as given in PubChem BioAssay (NCI).
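Method: 48-hour compound exposure of cells in 96-well plates, five concentrations, linear interpolation of endpoints. The concentration for 50% growth inhibition is given as GI50. At the TGI there is no net growth.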

What was measured:
Assay in all cases: DTP human tumour cell line panel, 48 h
NCI-H460 lung = tested on: NCI-H460 lung
NCI-H522 lung = tested on: NCI-H522 lung
NCI/ADR-RES ovarian = tested on: NCI/ADR-RES ovarian
OVCAR-3 ovarian = tested on: OVCAR-3 ovarian
OVCAR-4 ovarian = tested on: OVCAR-4 ovarian
OVCAR-5 ovarian = tested on: OVCAR-5 ovarian
OVCAR-8 ovarian = tested on: OVCAR-8 ovarian
PC-3 prostate = tested on: PC-3 prostate
RPMI-8226 leukemia = tested on: RPMI-8226 leukemia
RXF 393 renal = tested on: RXF 393 renal
SF-268 CNS = tested on: SF-268 CNS
SF-295 CNS = tested on: SF-295 CNS
SF-539 CNS = tested on: SF-539 CNS
SK-MEL-2 melanoma = tested on: SK-MEL-2 melanoma
SK-MEL-28 melanoma = tested on: SK-MEL-28 melanoma
SK-MEL-5 melanoma = tested on: SK-MEL-5 melanoma
SK-OV-3 ovarian = tested on: SK-OV-3 ovarian
SN12C renal = tested on: SN12C renal
SNB-19 CNS = tested on: SNB-19 CNS
SNB-75 CNS = tested on: SNB-75 CNS
SR leukemia = tested on: SR leukemia
SW-620 colon = tested on: SW-620 colon
T-47D breast = tested on: T-47D breast
TK-10 renal = tested on: TK-10 renal
U251 CNS = tested on: U251 CNS
UACC-257 melanoma = tested on: UACC-257 melanoma
UACC-62 melanoma = tested on: UACC-62 melanoma
UO-31 renal = tested on: UO-31 renal

C=C1C(=O)O[C@H]2[C@H]1CC/C(COC(=O)NCc1c[nH]c3ccc(Br)cc13)=C\CC[C@@]1(C)O[C@@H]21
GI50 (NCI-H460 lung): 1880 nM
TGI (NCI-H460 lung): 4040 nM
GI50 (NCI-H522 lung): 589 nM
TGI (NCI-H522 lung): 2050 nM
GI50 (NCI/ADR-RES ovarian): 3040 nM
TGI (NCI/ADR-RES ovarian): 12400 nM
GI50 (OVCAR-3 ovarian): 1010 nM
TGI (OVCAR-3 ovarian): 2290 nM
GI50 (OVCAR-4 ovarian): 1450 nM
TGI (OVCAR-4 ovarian): 3350 nM
GI50 (OVCAR-5 ovarian): 1760 nM
TGI (OVCAR-5 ovarian): 3780 nM
GI50 (OVCAR-8 ovarian): 1350 nM
TGI (OVCAR-8 ovarian): 3480 nM
GI50 (PC-3 prostate): 1510 nM
TGI (PC-3 prostate): 3120 nM
GI50 (RPMI-8226 leukemia): 752 nM
TGI (RPMI-8226 leukemia): 3570 nM
GI50 (RXF 393 renal): 1250 nM
TGI (RXF 393 renal): 2590 nM
GI50 (SF-268 CNS): 1610 nM
TGI (SF-268 CNS): 3410 nM
GI50 (SF-295 CNS): 1600 nM
TGI (SF-295 CNS): 3290 nM
GI50 (SF-539 CNS): 1660 nM
TGI (SF-539 CNS): 3130 nM
GI50 (SK-MEL-2 melanoma): 1350 nM
TGI (SK-MEL-2 melanoma): 2810 nM
GI50 (SK-MEL-28 melanoma): 1720 nM
TGI (SK-MEL-28 melanoma): 3370 nM
GI50 (SK-MEL-5 melanoma): 1630 nM
TGI (SK-MEL-5 melanoma): 2990 nM
GI50 (SK-OV-3 ovarian): 5870 nM
TGI (SK-OV-3 ovarian): 18500 nM
GI50 (SN12C renal): 1360 nM
TGI (SN12C renal): 3120 nM
GI50 (SNB-19 CNS): 2750 nM
TGI (SNB-19 CNS): 11300 nM
GI50 (SNB-75 CNS): 1260 nM
TGI (SNB-75 CNS): 2530 nM
GI50 (SR leukemia): 296 nM
TGI (SR leukemia): 10100 nM
GI50 (SW-620 colon): 611 nM
TGI (SW-620 colon): 2300 nM
GI50 (T-47D breast): 1240 nM
TGI (T-47D breast): 2990 nM
GI50 (TK-10 renal): 1550 nM
TGI (TK-10 renal): 2930 nM
GI50 (U251 CNS): 1630 nM
TGI (U251 CNS): 3020 nM
GI50 (UACC-257 melanoma): 1440 nM
TGI (UACC-257 melanoma): 2900 nM
GI50 (UACC-62 melanoma): 1310 nM
TGI (UACC-62 melanoma): 2640 nM
GI50 (UO-31 renal): 1380 nM
TGI (UO-31 renal): 2680 nM
